# Reference: article PMC5656322, “BAK1 is involved in AtRALF1-induced inhibition of root cell expansion” (PLoS Genetics, 2017)
# Where no end group is shown, it is not given here.
# Tested on: intact Arabidopsis seedlings
# Test: Binding assay with acridinium-labeled AtRALF1, intact seedlings
# Design: species or system Arabidopsis thaliana
# Conditions: for competition of acriAtRALF1 binding: 10-fold excess of unlabeled peptide
# Experimental: (A) Whole seedlings (5 days old) were treated for 15 min with acriAtRALF1 (acriR1), acriR1 and an excess of unlabeled AtRALF34 (R34), RALF1(9–49) [(R-9-49)], or AtRALF1 (R1), as indicated. The values are the mean ± SD of two measurements (5 seedlings each). (B) Microsomal fractions from wild-type and bak1 mutants were incubated for 15 min with acriAtRALF1 (acriR1), with acriR1 and an excess of unlabeled RALF1(9–49) [(R-9-49)], or with AtRALF1 (R1), as indicated. The values are the mean ± SD of two measurements. The proportions of labeled: unlabeled proteins are shown in parentheses. Single and triple asterisks indicate P < 0.1 and P < 0.01 (Student’s t test).
# Arabidopsis seedlings were grown for 5 days on vertical plates. Roots were homogenized in extraction buffer [300 mM sucrose, 100 mM Tris-HCl pH 7.5, 25 mM EDTA, 25 mM NaF, 1 mM Na2MoO4, 1 mM PMSF and protease inhibitor cocktail (Roche), adjusted to pH 6.2], and the homogenate was spun at 2,000 x g for 10 min at 4 °C. The supernatant was recovered and centrifuged at 100,000 x g for 50 min at 4 °C to precipitate the microsomal pellet. The pellet was resuspended in the extraction buffer plus 0.5% Triton-X. Seedlings or microsomal fractions were placed in 200 μl of medium and incubated with 7 nM acridinium-labeled peptide (acriAtRALF1 or acriAtRALF34) and different concentrations of AtRALF1, AtRALF34 or RALF1(9–49) for 15–20 min at 4 °C on a shaker. After incubation, the seedlings or microsomal fractions were washed three times with the same medium. Unless indicated otherwise, five entire seedlings and approximately 10 ng of microsomal fractions were used per treatment. The resulting luminescence emissions from the acridinium were measured using a microplate reader (Biotec ELx 800) at 2 s after injecting 50 μl of a solution containing 20 mM H2O2 in 0.1 M NaOH. These experiments were repeated at least three times using independent biological replicates. Duplicates were used for each concentration or treatment. The data shown are from one representative experiment.
# Supplementary file pgen.1007053.s017.pdf: S17 Fig Analyses of acridinium-labeled AtRALF1 (acriAtRALF1) and binding of acriAtRALF1 in bak1-4 and fer4 mutants. (A) The Ca^2+ mobilization assay comparing the acriAtRALF1 activity with the AtRALF1 peptide. A total of 20 time-points per treatment were measured over 160 sec and summed. The results are the means ± SD of two measurements. (B) acriAtRALF1 binding in whole seedlings and only in roots of Arabidopsis. The roots were excised just before measurements. Ctr, seedlings treated with unlabeled AtRALF1. (C) Whole seedlings (5 days old) were treated for 20 min with acriAtRALF1 (acriR1), acriR1 and an excess of unlabeled AtRALF1 (R1), as indicated. The values are the mean ± SD of three measurements (5 seedlings each). The proportions of labeled: unlabeled proteins are shown in parentheses. Triple asterisks indicates P < 0.001 (Student’s t test). (PDF) Click here for additional data file.
# Supplementary file pgen.1007053.s018.pdf: S18 Fig Binding of acridinium-labeled AtRALF1 and AtRALF34 to intact Arabidopsis seedlings. (A) bak7 seedlings (5 days old) were treated for 15 min with acriAtRALF1 (acriR1), acriR1 and an excess of unlabeled AtRALF1 (R1), as indicated. (B) bak1 seedlings (5 days old) were treated for 15 min with acriAtRALF34 (acriR34), acriR34 and an excess of unlabeled AtRALF34 (R34) or AtRALF1 (R1), as indicated. The proportions of labeled: unlabeled proteins are shown in parentheses. The values are the mean ± SD of two measurements (5 seedlings each). (PDF) Click here for additional data file.
Substance,"reduction of acriAtRALF1 binding (bak1-1, 10-fold excess of AtRALF1)","acriAtRALF1 binding reduced to (bak1-1, 100- or 500-fold excess of AtRALF1) [%]","reduction of acriAtRALF1 binding (bak1-3, 10-fold excess of AtRALF1) [%]","acriAtRALF1 binding reduced to (bak1-3, 100- or 500-fold excess of AtRALF1) [%]","reduction of acriAtRALF1 binding (bak1-4, 10-fold excess of AtRALF1) [%]","acriAtRALF1 binding reduced to (bak1-4, 100- or 500-fold excess of AtRALF1) [%]",share of AtRALF1 binding due to BAK1 (intact roots),"reduction of acriAtRALF1 binding (wild-type seedlings, 10-fold excess of unlabeled AtRALF1) [%]","reduction of acriAtRALF1 binding (wild-type seedlings, 100-fold excess of AtRALF1, printed ""up to"") [%]","further reduction of acriAtRALF1 binding (wild-type seedlings, 500-fold excess of AtRALF1)",competition of acriAtRALF1 binding (bak1 mutants),"competition of acriAtRALF1 binding (wild-type seedlings, 7 nM acriAtRALF1, 15 min, 4 °C)"
AtRALF1: root-specific RALF isoform in Arabidopsis; recombinant peptide hormone produced in E. coli (ATTKYISYQSLKRNSVPCSRRGASYYNCQNGAQANPYSRGCSKIARCRS; ends and bridges not checked; cysteine pairing not given here),approximately 32%,54,~35,63,~33,61,approximately 30%,24,59,No further reduction was observed,–,–
"RALF1(9–49): inactive AtRALF1 peptide which has a deletion of the first 8 amino acids (QSLKRNSVPCSRRGASYYNCQNGAQANPYSRGCSKIARCRS; ends and bridges not checked; cysteine pairing not given here; UniProt Q9SRY3 80-120, looked up, fragment)",–,–,–,–,–,–,–,–,–,–,did not reduce the binding in the mutant backgrounds,could not be competed out
